Results as given in publication PMC7614683, “A small molecule PI3Kα activator for cardioprotection and neuroregeneration” (Nature, 2023).

Legend:
[1] = test system: A549 cells; assay: Phosphoinositide quantification by mass spectrometry, A549; format: cell-based, human; conditions: A549, 2 min
Protocol: A549 cells (5.10^5) or wild-type MEFs (3.10^5) were plated in complete media onto 3.5 cm dishes or 60 mm dishes respectively for 24 h, prior to FCS-free starvation media for 16 h. MEFs, in addition, were supplemented with arachidonic acid in the FCS-free starvation media as previously described. […] Reactions were terminated in 600 μl ice-cold 1 M HCl and cells scraped and resuspended, then divided into two equal samples in eppendorfs. […] The data are shown as response ratios, calculated by normalizing the multiple reaction monitoring (MRM)-targeted lipid integrated response area to that of a known amount of relevant internal standard. To account for any cell input variability, PIP3 response ratios were normalized to C38:4-PI response ratios; while PI(3,4)P2 response ratios were normalised to PI(4,5)P2 response ratios. Data shown are mean ±SD for n ≥3, except for non-DMSO control in MEF PIP3 measurements where n=1.

[2] = test system: PI3Kα-KO MEFs; assay: pAKT S473 western blot, PI3Kα-KO MEFs; format: cell-based, mouse; conditions: 15 min
Protocol: Unless otherwise indicated, western blotting was performed with ECL detection. For time course studies, A549 cells were seeded at 250,000 cells per well in 6-well plates in RPMI (10% FBS + 1 mM Na-Pyruvate + 1% P/S) and allowed to adhere overnight. The next day they were serum-starved for 4 h prior to treatment with 100 nM insulin or 5 μM 1938, for the indicated time (5 min to 48 h) at 37°C, 5% CO2. For 1938 titration assays in MEFs, cells were seeded at 150,000 cells per well in 6-well plates and allowed to adhere overnight. The next day they were serum-starved for 4 h prior to treatment with insulin (1 μM), 1938 (0.2 to 30 μM, final DMSO concentration of 1.5%) or inhibitors (final DMSO concentration of ≤1.5%) for 15 min at 37°C, 5% CO2. Cells were washed twice with cold PBS and lysed using cold RIPA buffer (25 mM Tris.HCl pH 7.6, 150 mM NaCl, 1% NP-40, 1% sodium deoxycholate, 0.1% SDS supplemented with protease/phosphatase inhibitor cocktail from Merck). To remove cell debris, homogenates were spun at 13,000 rpm for 15 min at 4°C and the supernatant fraction recovered. Protein concentration was determined by colorimetric assay (BCA assay, Promega). Protein extracts were resolved by SDS-PAGE, transferred to nitrocellulose membranes, and incubated overnight at 4°C with specific antibodies as follows: anti-vinculin (Sigma #V9131) and the following antibodies from Cell Signaling Technology (CST): pAKT-S473 (CST #9271), pS6-S240/244 (CST #2215), pPRAS40-T246 (CST #2640) and total S6 (CST #2317). Primary ntibodies were used at 1:1000 dilution except anti-vinculin (1:10000). Secondary antibodies are also from Cell Signalling Technology: Anti rabbit IgG, HRP linked Antibody (CST #7074S), Anti mouse IgG, HRP linked Antibody (CST #7076S). Raw and uncropped blots are shown in Supplementary Fig. 1.

[3] = test system: PI3Kα-WT MEFs; assay: Cell cycle progression by EdU staining, PI3Kα-WT MEFs; format: cell-based, mouse; conditions: 24h; BYL719 as co-treatment with 1938
Protocol: The Click-IT EdU protocol was used according to manufacturer instructions (Sigma-Aldrich #BCK-FC488-50). Briefly, MEFs were seeded at 50,000 cells per well in 6-well plates in DMEM supplemented with 10% FBS and 1% P/S, and allowed to attach overnight. The next day, cells were serum-starved for 5 h prior to compound addition for 24 h in fresh serum-free DMEM. Cells were then pulsed for 3 h with 10 μM EdU, followed by collection by trypsinization and fixation with 3.7% FA in PBS for 15 min in the dark, washed in 3% BSA and permeabilized in 1x saponin-based permeabilization buffer for 20 min in the dark. EdU was then detected using the FAM-azide assay cocktail for 30 min in the dark. Cells were washed twice in 1x saponin-based permeabilization buffer followed by analysis with flow cytometer (Novocyte Advanteon flow cytometer, Agilent). Gating strategy for flow cytometry is shown in Supplementary Fig. 2.

[4] = test system: PI3Kα-WT MEFs; assay: Cell number by crystal violet staining, PI3Kα-WT MEFs; format: cell-based, mouse; conditions: 24h
Protocol: MEFs were seeded at 5000 cells per well in 96-well plates in DMEM supplemented with 10% FBS and 1% P/S, and allowed to attach overnight. The next day, cells were serum-starved for 5 h prior to compound addition in fresh serum-free DMEM. After different time points, cells were rapidly washed with distilled H2O before fixed and stained in a solution of 0.5% crystal violet (Sigma-Aldrich #C0775) in 20% methanol (v:v) as described. Briefly, after 20 min incubation at room temperature on a rocking platform, fixed and stained cells were washed 3 times with distilled H2O and plates air-dried overnight. 200 μl methanol was next added to each well and the plates were incubated at room temperature for 20 min on a bench rocker, followed by measurement of optical density at 570 with a plate reader.

| Compound | concentration at which the PIP3 response maxed out [1] [µM] | pAKT^S473 induction [2] | cell cycle progression (EdU incorporation) [3] | cell number (crystal violet staining) [4] | PIP3 response [1] |
| --- | --- | --- | --- | --- | --- |
| CCN1CCN(c2ccc(Nc3cc(Nc4cccc5c4N(C(C)=O)CC5)ccn3)cc2)CC1 [Compound 1938] | 10 | no pAKT^S473 signal | induced cell cycle progression | increase in cell number |  |
| insulin: insulin, canonical activator of PI3Kα, used as positive control |  | still respond to insulin | did not induce cell cycle progression | did not induce cell cycle progression and an increase in cell number | strong PIP3 response |
